Data published in the supplement of paper PMC10307832.

Experiments:
Assay in all cases: relative viability (nuclei count vs DMSO), 5 days (fraction); higher = more cells survive
Wnt-C59 + Olaparib = compound: CC1=NC=CC(=C1)C2=CC=C(C=C2)CC(=O)NC3=CC=C(C=C3)C4=CN=CC=C4 [Wnt-C59] + O=C(c1cc(Cc2n[nH]c(=O)c3ccccc23)ccc1F)N1CCN(C(=O)C2CC2)CC1 [Olaparib] (partner 8 µM)
Outline: (§1)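 Five library-drug doses in √10 steps were combined with a fixed anchor-drug dose, or a single drug was given alone, by pin tool to lung cancer cell lines in 1536-well plates the day after seeding. Nuclei were stained and counted after 5 days. Relative viability is the nuclei count in treated wells over that in vehicle wells, taken as the median of duplicate plates.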

Wnt-C59 + Trametinib = compound: CC1=NC=CC(=C1)C2=CC=C(C=C2)CC(=O)NC3=CC=C(C=C3)C4=CN=CC=C4 [Wnt-C59] + CC(=O)Nc1cccc(-n2c(=O)n(C3CC3)c(=O)c3c(Nc4ccc(I)cc4F)n(C)c(=O)c(C)c32)c1 [Trametinib] (partner 0.02 µM)
Outline: as §1

Wnt-C59 + OSI-027 = compound: CC1=NC=CC(=C1)C2=CC=C(C=C2)CC(=O)NC3=CC=C(C=C3)C4=CN=CC=C4 [Wnt-C59] + COc1cccc2cc(-c3nc([C@H]4CC[C@H](C(=O)O)CC4)n4ncnc(N)c34)[nH]c12 [OSI-027] (partner 0.5 µM)
Outline: as §1

Lapatinib + Palbociclib = compound: CS(=O)(=O)CCNCc1ccc(-c2ccc3ncnc(Nc4ccc(OCc5cccc(F)c5)c(Cl)c4)c3c2)o1 [Lapatinib] + CC(=O)c1c(C)c2cnc(Nc3ccc(N4CCNCC4)cn3)nc2n(C2CCCC2)c1=O [Palbociclib] (partner 0.5 µM)
Outline: as §1

Cell Line	relative viability (Wnt-C59 + Olaparib; first compound 0.001 µM)	relative viability (Wnt-C59 + Olaparib; first compound 0.01 µM)	relative viability (Wnt-C59 + Olaparib; first compound 0.03162 µM)	relative viability (Wnt-C59 + Olaparib; first compound 0.1 µM)	relative viability (Wnt-C59 + Trametinib; first compound 0.001 µM)	relative viability (Wnt-C59 + Trametinib; first compound 0.01 µM)	relative viability (Wnt-C59 + Trametinib; first compound 0.03162 µM)	relative viability (Wnt-C59 + Trametinib; first compound 0.1 µM)	relative viability (Wnt-C59 + OSI-027; first compound 0.001 µM)	relative viability (Wnt-C59 + OSI-027; first compound 0.01 µM)	relative viability (Wnt-C59 + OSI-027; first compound 0.03162 µM)	relative viability (Wnt-C59 + OSI-027; first compound 0.1 µM)	relative viability (Lapatinib + Palbociclib; first compound 0.02 µM)	relative viability (Lapatinib + Palbociclib; first compound 0.06325 µM)	relative viability (Lapatinib + Palbociclib; first compound 0.2 µM)	relative viability (Lapatinib + Palbociclib; first compound 0.6325 µM)	relative viability (Lapatinib + Palbociclib; first compound 2 µM)
LOU-NH91	0.966	0.873	0.955	0.883	0.817	0.788	0.802	0.792	0.76	0.571	0.718	0.738	0.542	0.525	0.508	0.494	0.57
NCI-H727	0.691	0.697	0.823	0.677	0.399	0.369	0.355	0.406	0.759	0.581	0.641	0.541	0.65		0.653	0.618	0.557
LK-2	0.728	0.819	0.739	0.748	0.767	0.869	0.713	0.817	0.211	0.265	0.199	0.229	0.634		0.832		1.01
NCI-H322M	0.704	0.804	0.828	0.765	0.581	0.484	0.412	0.504	0.53	0.498	0.442	0.399	0.464	0.432	0.455	0.446	0.434
NCI-H650	0.415	0.354	0.418	0.454	0.984	0.934	1.08	1.05	0.581	0.661	0.485	0.532		0.315	0.346	0.319	0.334
PC-3 [JPC-3]	1.18	1.21	1.22	1.16	0.78	0.736	0.623	0.785	0.83	0.738	0.83	0.773		0.589		0.546	0.444
NCI-H1355	0.726	0.756	0.717	0.716	0.455	0.404	0.423	0.373	0.446	0.302	0.366	0.417	0.411	0.29	0.402	0.361	0.268
COR-L23	0.295	0.309	0.362	0.32	0.626	0.648	0.684	0.56	0.763	0.701	0.954	0.735	0.248	0.298	0.342	0.297	0.279
201T	0.845	0.884	0.841	0.867	0.698	0.747	0.733	0.698	0.717	0.725	0.761	0.627	0.358	0.309	0.339	0.338	0.342
NCI-H2342	0.792	0.489	0.446	0.396	0.786	0.757	0.91	0.797	0.57	0.527	0.646	0.613	0.504	0.491	0.501	0.553	0.484
NCI-H1792	0.487	0.48	0.525	0.385	0.395	0.348	0.526	0.352	0.722	0.686	0.926	0.703	0.618		0.614	0.559	0.6
NCI-H661	0.739	0.73	0.797	0.698	0.567	0.559	0.593	0.631	0.719	0.699	0.803	0.758	0.374	0.382	0.325	0.356	0.3
HCC-15	0.745	0.73	0.738	0.667	0.417	0.371	0.404	0.359	0.641	0.718	0.647	0.752		0.68	0.734	0.652	0.584
NCI-H2405	0.851	0.879	0.898	0.861	0.655	0.587	0.505	0.574	0.633	0.554	0.579	0.476		0.452		0.505	0.518
SW 900	0.887	0.814	0.987	0.987	0.809	0.745	0.793	0.6	0.585	0.54	0.457	0.554		0.514	0.554	0.586	0.43
NCI-H838	0.765	0.806	0.807	0.739	0.538	0.55	0.491	0.482	0.435	0.385	0.331	0.411	0.225	0.193	0.201	0.238	0.178
